Laboratory results published in patent US9981973B2, “Tricyclic compounds as inhibitors of immunosuppression mediated by tryptophan metabolization” (NewLink Genetics Corporation, priority 2013, dated 2018).

What follows are compounds tested against purified human TDO protein (Homo sapiens (Human), UniProt P48775) (assay: Enzymatic TDO assay).
Format: biochemical
Protocol: Differently from the IDO activity assay, no methylene blue is added to the assay. The inhibitors were initially diluted in DMSO at 100 mM and were diluted in potassium phosphate 50 mM, added to the reaction mixture at final concentrations raging from 30 μM to 5 nM and preincubated with the enzyme for 5 min at 25° C. The reaction was started by addition of L-tryptophan to 20 μM and incubated 15 min at 37° C. The reaction was stopped by addition of 0.5 vol of 30% trichloroacetic acid and incubated 30 min at 60° C. to hydrolyze N-formylkynurenine to kynurenine. The reaction was centrifuged at 3400 g for 5 min to remove precipitated protein and the supernatant was reacted with 2% (w/v) of p-dimethylaminobenzaldehyde in acetic acid. The reaction was incubated 10 min at 25° C. and read at 480 nm in a spectrophotometer. Control samples with no TDO inhibitor, or with no TDO enzyme were used as controls to set the parameters for the non-linear regressions necessary for determination of the IC50 for each compound. Nonlinear regressions and determination of the IC50 values were performed using the GraphPad Prism 4 software.

Sequence of purified human TDO protein (P48775 whole entry): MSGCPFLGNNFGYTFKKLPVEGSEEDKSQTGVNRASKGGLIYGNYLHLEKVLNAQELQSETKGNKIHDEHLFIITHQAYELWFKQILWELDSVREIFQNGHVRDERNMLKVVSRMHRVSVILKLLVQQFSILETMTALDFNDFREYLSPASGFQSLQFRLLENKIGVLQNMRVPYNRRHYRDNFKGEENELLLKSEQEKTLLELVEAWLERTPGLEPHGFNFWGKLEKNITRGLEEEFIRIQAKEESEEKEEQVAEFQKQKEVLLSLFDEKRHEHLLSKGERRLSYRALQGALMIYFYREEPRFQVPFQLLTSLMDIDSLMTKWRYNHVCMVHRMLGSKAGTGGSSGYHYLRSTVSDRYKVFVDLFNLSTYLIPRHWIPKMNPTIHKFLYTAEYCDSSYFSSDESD

IC50, > 10 µM:
O=C(CC1c2ccccc2-c2cnnn21)C1CCC(F)(F)CC1 (stereo not drawn) [Compound 54, 2-(8H-[1,2,3]triazolo[5,1-a]isoindol-8-yl)-1-(4,4-difluorocyclohexyl)ethan-1-one]
OC(CC1c2ccccc2-c2nncn21)C1CCCCC1 (stereo not drawn) [Compound 69, 2-(5H-[1,2,4]triazolo[3,4-a]isoindol-5-yl)-1-cyclohexylethan-1-ol]
O=C(CC1c2ccccc2-c2nncn21)C1CCCCC1 (stereo not drawn) [Compound 43, 2-(5H-[1,2,4]triazolo[3,4-a]isoindol-5-yl)-1-cyclohexylethan-1-one]
